Measured values published in patent US20090306053A1, “Highly selective rho-kinase inhibitor” (priority 2005, published 2009).

Target: T1, Purified bovine PKGα (Bos taurus, UniProt P00516)
T1 construct: Purified bovine PKGα (Promega); purchased Promega
T1 sequence (P00516 1-671): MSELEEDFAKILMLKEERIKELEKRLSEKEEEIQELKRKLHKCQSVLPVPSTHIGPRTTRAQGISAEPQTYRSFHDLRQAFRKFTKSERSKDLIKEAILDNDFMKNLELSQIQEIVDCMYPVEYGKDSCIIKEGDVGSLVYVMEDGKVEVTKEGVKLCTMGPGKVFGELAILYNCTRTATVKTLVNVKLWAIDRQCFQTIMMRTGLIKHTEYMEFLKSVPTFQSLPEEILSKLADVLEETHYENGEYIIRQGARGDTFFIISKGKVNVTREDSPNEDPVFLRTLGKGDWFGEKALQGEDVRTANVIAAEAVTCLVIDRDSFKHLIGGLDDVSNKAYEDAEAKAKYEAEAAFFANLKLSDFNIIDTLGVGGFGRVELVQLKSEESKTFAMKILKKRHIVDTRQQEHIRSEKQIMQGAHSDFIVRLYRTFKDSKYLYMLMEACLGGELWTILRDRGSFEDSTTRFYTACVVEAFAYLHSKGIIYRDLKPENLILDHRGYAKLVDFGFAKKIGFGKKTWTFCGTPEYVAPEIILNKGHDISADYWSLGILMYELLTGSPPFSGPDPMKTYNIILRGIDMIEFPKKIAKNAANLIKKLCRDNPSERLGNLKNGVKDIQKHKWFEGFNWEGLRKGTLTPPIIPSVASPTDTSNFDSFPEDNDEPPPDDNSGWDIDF
Assay: PKG kinase assay (Kinase-Glo ATP consumption)
Type: biochemical
Conditions: for IC50: 1 μM ATP, read-out: Kinase Inhibiting Activity (IC50) PKG; for Realative Inhibitory Activity PKG: relative ratio to ROCKII (=1.0), based on IC50 values
Description: Purified bovine PKGα (Promega) was used to evaluate its activity to phosphorylate a substrate peptide (RKISASEF, Promega).
In a system of the total volume of 50 μL, the reaction of the above-mentioned enzyme (64 ng) was carried out at room temperature for 80 minutes in the presence of 40 mM of Tris-HCl (pH 7.5), 20 mM of magnesium chloride, 10 μM of cGMP (Sigma), 100 μM of the above peptide, and 1 μM of ATP. After the kinase reaction, the luminescence intensity corresponding to the amount of ATP in the reaction system was measured using a luciferase reagent (Kinase-Glo Luminescent Kinase Assay kit, Promega) with a chemiluminescence measurement apparatus (MicroLumat, Berthold Technologies). The amount of ATP consumed by the phosphorylation reaction was calculated by comparison with the luminescence intensity in the system when the kinase reaction was not carried out.
With this system, the kinase reaction was carried out in the presence of a compound at various concentrations, and the IC50 value of the compound was determined based on the resulting compound concentration-response curve for ATP consumption.
The ROCKII-inhibiting activity of a compound to be tested was defined as 1.0, and the inhibitory activities of the compound against kinases (PKA, PKG, CaMKII, and AuroraA) other than ROCKII were calculated as relative ratios to the ROCKII-inhibiting activity, based on the IC50 values calculated using the above-described evaluation system.

Row | Compound | IC50 | Realative Inhibitory Activity PKG
1 | 2-(S)-1-(4-fluoroisoquinoline-5-sulfonyl)-4-glycyl-2-methylhomopiperazine dihydrochloride [Example 1] | 63.5 µM | 2117
2 | CNCC(=O)N1CCCN(S(=O)(=O)c2cccc3cncc(F)c23)[C@@H](C)C1.Cl.Cl [Example 2, 2-(S)-1-(4-fluoroisoquinoline-5-sulfonyl)-2-methyl-4-(N-methylglycyl)homopiperazine dihydrochloride] | 28 µM | 933
